{"source": "patent US20110306663A1", "about": "(Baylor Research Institute, priority 2010, published 2011)", "key": {"[1]": {"test_system": "patients with APBD and GBE1 deficiency", "assay": "6 minutes walk test, open-label triheptanoin study", "assay_type": "in vivo, human", "protocol": "(§1) Ages ranged from 51-66 years and all were Ashkenazi Jewish. Three patients were able to walk independently, one walked with the help of a walker and a 5th patient was wheelchair bound.\n(§2) Baseline evaluation based on the criteria described in Table I, herein below was performed every 3 months.\n(§3) The outcome measures included: (i) the 6 minutes walk test and (ii) motion capture gait analysis and (iii) SF-36 Health Survey Questionnaire. […] Maximal improvement seemed to occur within the first 6 months of treatment (FIG. 2). […] Physical Function score increased in 4/5 patients on the SF-36 health survey questionnaire."}, "[2]": {"test_system": "patients with APBD and GBE1 deficiency", "assay": "Motion capture gait analysis, open-label triheptanoin study", "assay_type": "in vivo, human", "protocol": "as §1, §2, §3"}, "[3]": {"test_system": "patients with APBD and GBE1 deficiency", "assay": "SF-36 Health Survey Questionnaire, open-label triheptanoin study", "assay_type": "in vivo, human", "protocol": "as §1, §2, §3"}, "[4]": {"test_system": "patients with APBD and GBE1 deficiency", "assay": "Adverse event assessment, open-label triheptanoin study", "assay_type": "in vivo, human", "conditions": "5 patients; for Adverse events (AE): mean 8.2 months of treatment", "protocol": "as §1\n(§4) In the event of an organic acid abnormality such as an excessive urinary excretion of propionic and/or methylmalonic acid occur, biotin and/or vitamin B12 respectively were added to the regimen and normalization of the organic acid and acylcarnitine profile was verified. Should that not be sufficient the dose was reduced until normalization occurs. If still abnormal, patient was be excluded from the study.\nTwo adverse events not related to the triheptanoin were a broken ankle in one patient and wound treatment in another. […] Safety was also monitored throughout the study by urinary organic acids and blood acylcarnitine profile analyses. Changes in metabolic tests related the ingestion of triheptanoin were identified."}, "[5]": {"test_system": "patients with APBD and GBE1 deficiency", "assay": "Urinary organic acids and blood acylcarnitine profile analyses", "assay_type": "in vivo, human", "protocol": "as §4\nSafety was also monitored throughout the study by urinary organic acids and blood acylcarnitine profile analyses."}, "[6]": {"test_system": "patients with long chain fatty acid oxidation defects", "conditions": "30% to 35% of total daily caloric intake; cited from earlier work"}, "[7]": {"test_system": "patient with adult-onset acid maltase deficiency (Pompe disease)", "conditions": "one patient; cited from earlier work"}, "[8]": {"test_system": "patient with pyruvate carboxylase deficiency", "conditions": "one patient; cited from earlier work"}, "[9]": {"conditions": "5 patients, within 6 months of treatment"}}, "note": "Values joined by “and” are separate entries in the source; they are usually repeats but may differ in a detail not shown here. Identical values can stand only once."}
{"smiles": "CCCCCCC(=O)OCC(COC(=O)CCCCCC)OC(=O)CCCCCC", "note": "[triheptanoin, glyceryl triheptanoate]", "values": [{"measurement": "Six minute walk test distance on treatment", "setting": "[1]; 5 patients, mean ± SD after treatment (from 1246±642), p=0.06", "value": "1376±692", "unit": "feet"}, {"measurement": "Six minute walk test mean increase", "setting": "[1]; 5 patients, triheptanoin oil 1-2 g/fg/24 hours in 4 divided doses, 1246±642 at start, p=0.06", "value": 130, "unit": "feet"}, {"measurement": "Distance walked during 6 minutes (6 minutes walk test)", "setting": "[1]; [9]", "value": "significant improvement"}, {"measurement": "Time of maximal improvement in 6-minute walk test", "setting": "[1]; FIG. 2", "value": "≤ 6", "unit": "months"}, {"measurement": "6-minute walk test mean improvement", "setting": "[1]; mean follow up of 8.5 months, n=5, p=0.06", "value": 10, "unit": "%"}, {"measurement": "6-minute walk test improvement, one patient", "setting": "[1]; one patient, 25 months time point", "value": "126 feet and 9.5%"}, {"measurement": "Motor performance and quality of life", "setting": "[1]; open-label study, 5 patients", "value": "evidence of improved motor performance as well as quality of life"}, {"measurement": "Gait analysis: cadence, support time, stride length, step length and walking speed", "setting": "[2]; 3 patients who were able to walk unaided", "value": "improvement"}, {"measurement": "Gait analysis", "setting": "[2]; [9]", "value": "stability or slight improvement"}, {"measurement": "Patients with increased Physical Function score on the SF-36", "setting": "[3]; 5 patients", "value": "4/5"}, {"measurement": "SF-36 Health Survey Questionnaire scores", "setting": "[3]; FIG. 3", "value": "tended to improve in parallel with motor score"}, {"measurement": "AE remotely linked to triheptanoin", "setting": "[4]", "value": "rectal pain reported by one patient"}, {"measurement": "Serious AE", "setting": "[4]", "value": "no serious AE related to triheptanoin oil"}, {"measurement": "Adverse events (AE)", "setting": "[4]", "value": "No adverse events (AE) were reported"}, {"measurement": "Adverse events (AE)", "setting": "[4]; listed as triheptanoin oil", "value": "No significant adverse events occurred"}, {"measurement": "Catabolism of triheptanoin", "setting": "[5]; conclusion from urine and plasma findings", "value": "catabolized completely without accumulation of secondary metabolites"}, {"measurement": "Mitochondrial overload from triheptanoin-derived metabolites", "setting": "[5]; urinary organic acids", "value": "no evidence of mitochondrial overload"}, {"measurement": "Urinary excretion of derivatives of heptanoate oxidation (pimelate, 3-hydroxypentanoate, 3-ketopentanoate, 3-hydroxypropionate, methylcitrate)", "setting": "[5]; urine", "value": "detected"}, {"measurement": "Clinical outcome of diet treatment", "setting": "[6]", "value": "decreased episodes of rhabdomyolysis, improvement in pain and cardiac function"}, {"measurement": "Propionyl overload", "setting": "[6]", "value": "No propionyl overload occurred"}, {"measurement": "Clinical response", "setting": "[7]", "value": "markedly improved"}, {"measurement": "Glutamine and GABA in the CSF", "setting": "[8]", "value": "normalization"}]}
